{"source": "patent US20230181614A1", "about": "“ADMINISTRATION OF CITICOLINE TO IMPROVE COGNITIVE PERFORMANCE, ATTENTIONAL PERFORMANCE, AND MOTOR FUNCTION” (KYOWA HAKKO BIO CO., LTD., priority 2014, published 2023)", "key": {"[1]": {"test_system": "Healthy subjects, ages 13-18", "experiment": "Rey-Osterreith Complex Figure Test (ROCFT) / Modified Taylor Complex Figure", "format": "in vivo, human", "design": "key: raw score: elements correctly recalled, accuracy and placement", "conditions": "for ROCFT Copy Raw Score V1, Mean / ROCFT Delayed Raw Score V1, Mean / ROCFT Difference Raw Score V1, Mean / ROCFT Immediate Raw Score V1, Mean: Visit 1; for ROCFT V3-V1 Copy Raw Score, Mean / ROCFT V3-V1 Delayed Raw Score, Mean / ROCFT V3-V1 Difference Raw Score, Mean / ROCFT V3-V1 Immediate Raw Score, Mean: Visit difference score", "source_text": "Study participants were screened by telephone prior to study enrollment. Healthy subjects, ages 13-18, with no significant medical conditions and no history of co-morbid psychiatric disorder, current Axis I or II diagnosis, or previous participation in a pharmacotherapeutic trial, were selected. Use of any psychotropic medication or any previous head injury resulting in loss of consciousness for 5 or more minutes were used as exclusion criteria. While no participant met criteria for a neuropsychiatric disorder at enrollment, clinical assessments were still completed throughout the study to evaluate changes in mood state. In addition, self-reports of sleep habits, lifestyle, and exercise routines were also administered at baseline as well as at each study visit to assess changes in health habits during study participation. Following the completion of Visit 1 assessment, participants were given their 28-day supply of citicoline (250 mg or 500 mg) or placebo, which was randomly assigned. They were instructed to take one capsule a day every day for the next 28 days. Visit 2 occurred fourteen days after Visit 1. At Visit 2, the remaining study pills were counted and participant dosage calendars were checked to ensure compliance with the protocol. Additional neuropsychological measures and clinical assessments were administered during this visit. Participants returned for Visit 3 fourteen days later, on the 28th day of their study participation. The pill bottle and the dosage calendar were collected from each participant. Urine and blood were again obtained. Participants also participated in similar clinical and neuropsychological testing and clinical measures that were given during visit 1. The ROCFT is an assessment of visuo-organizational ability, visual attention, and visual memory. The participant is asked to copy a complex 2-dimensional figure with the stimulus or complex figure in front of them (Copy Trial), immediately after the stimulus has been removed (Short Delay Trial), and after 30 minutes without the stimulus present (Long Delay Trial). The figure produced at each trial is then evaluated for the strategy used in reproducing the figure, constructional accuracy, and placement of elements within the figure. The Copy, Short Delay, and Long Delay trials are each scored on the number of elements that have been correctly recalled and the accuracy and placement of each element. The Difference Score between immediate and delayed performance scores is a measure of temporary decay for visuospatial memory. This test was administered on both the first and the third visits. The Modified Taylor Complex Figure (MTCF) is an alternate form of the ROCFT to assess visuo-organizational ability, visual attention, and visual memory. The same procedure was used to administer the MTCF. The MTCF was administered at the second visit instead of the ROCFT to minimize the effect of repeat testing on copy and retention of the figure across visits."}, "[2]": {"test_system": "Healthy subjects, ages 13-18", "experiment": "California Verbal Learning Test I and II (CVLT)", "format": "in vivo, human", "conditions": "for CVLT I & II List A Long Delay V1, Mean / CVLT I & II List A Short Delay V1, Mean / CVLT I & II List A Trial 1 V1, Mean / CVLT I & II List A Trial 5 V1, Mean / CVLT I & II List A Trials 1-5 V1, Mean / CVLT I & II List B V1, Mean: Visit 1; for V3-V1 CVLT I & II Difference List A Long Delay, Mean / V3-V1 CVLT I & II Difference List A Short Delay, Mean / V3-V1 CVLT I & II Difference List A Trial 1, Mean / V3-V1 CVLT I & II Difference List A Trial 5, Mean / V3-V1 CVLT I & II Difference List A Trials 1-5, Mean / V3-V1 CVLT I & II Difference List B Trial 1, Mean: Visit difference score; for CVLT I & II List A Long Delay V3, Mean / CVLT I & II List A Short Delay V3, Mean / CVLT I & II List A Trial 1 V3, Mean / CVLT I & II List A Trial 5 V3, Mean / CVLT I & II List A Trials 1-5 V3, Mean / CVLT I & II List B V3, Mean: Visit 3", "source_text": "Study participants were screened by telephone prior to study enrollment. Healthy subjects, ages 13-18, with no significant medical conditions and no history of co-morbid psychiatric disorder, current Axis I or II diagnosis, or previous participation in a pharmacotherapeutic trial, were selected. Use of any psychotropic medication or any previous head injury resulting in loss of consciousness for 5 or more minutes were used as exclusion criteria. While no participant met criteria for a neuropsychiatric disorder at enrollment, clinical assessments were still completed throughout the study to evaluate changes in mood state. In addition, self-reports of sleep habits, lifestyle, and exercise routines were also administered at baseline as well as at each study visit to assess changes in health habits during study participation. Following the completion of Visit 1 assessment, participants were given their 28-day supply of citicoline (250 mg or 500 mg) or placebo, which was randomly assigned. They were instructed to take one capsule a day every day for the next 28 days. Visit 2 occurred fourteen days after Visit 1. At Visit 2, the remaining study pills were counted and participant dosage calendars were checked to ensure compliance with the protocol. Additional neuropsychological measures and clinical assessments were administered during this visit. Participants returned for Visit 3 fourteen days later, on the 28th day of their study participation. The pill bottle and the dosage calendar were collected from each participant. Urine and blood were again obtained. Participants also participated in similar clinical and neuropsychological testing and clinical measures that were given during visit 1. […] Subjects are asked to remember a 16-item word list, which is presented on five trials. After each trial, the subject is asked to recall all of the words that they can remember. A second list is then presented to provide an interference condition. The subject is then asked to recall the first word list. After a temporal delay, the subject is again asked to recall the first word list. Test results provide scores for assessing verbal learning, strength of memory following interfering tasks, proactive interference, accuracy of recognition memory and storage versus retrieval of newly learned information. The CVLT was administered at all three visits."}}}
{"molecule": "C[N+](C)(C)CCOP(=O)(O)OP(=O)([O-])OC[C@H]1O[C@@H](n2ccc(N)nc2=O)[C@H](O)[C@@H]1O", "note": "[citicoline, Cytidine 5′-diphosphocholine]", "values": [{"measurement": "ROCFT Copy Raw Score V1, Mean", "setting": "[1]; 250 mg/day group", "result": 29.72}, {"measurement": "ROCFT Delayed Raw Score V1, Mean", "setting": "[1]; 250 mg/day group", "result": 21.63}, {"measurement": "ROCFT Difference Raw Score V1, Mean", "setting": "[1]; 250 mg/day group", "result": -0.24}, {"measurement": "ROCFT Immediate Raw Score V1, Mean", "setting": "[1]; 250 mg/day group", "result": 21.39}, {"measurement": "ROCFT V3-V1 Copy Raw Score, Mean", "setting": "[1]; 250 mg/day group", "result": 0.28}, {"measurement": "ROCFT V3-V1 Delayed Raw Score, Mean", "setting": "[1]; 250 mg/day group", "result": 3.80}, {"measurement": "ROCFT V3-V1 Difference Raw Score, Mean", "setting": "[1]; 250 mg/day group", "result": 1.35}, {"measurement": "ROCFT V3-V1 Immediate Raw Score, Mean", "setting": "[1]; 250 mg/day group", "result": 5.15}, {"measurement": "ROCFT Copy Raw Score V1, Mean", "setting": "[1]; 500 mg/day group", "result": 29.13}, {"measurement": "ROCFT Delayed Raw Score V1, Mean", "setting": "[1]; 500 mg/day group", "result": 19.00}, {"measurement": "ROCFT Difference Raw Score V1, Mean", "setting": "[1]; 500 mg/day group", "result": 0.44}, {"measurement": "ROCFT Immediate Raw Score V1, Mean", "setting": "[1]; 500 mg/day group", "result": 19.48}, {"measurement": "ROCFT V3-V1 Copy Raw Score, Mean", "setting": "[1]; 500 mg/day group", "result": 0.27}, {"measurement": "ROCFT V3-V1 Delayed Raw Score, Mean", "setting": "[1]; 500 mg/day group", "result": 5.31}, {"measurement": "ROCFT V3-V1 Difference Raw Score, Mean", "setting": "[1]; 500 mg/day group", "result": 0.13}, {"measurement": "ROCFT V3-V1 Immediate Raw Score, Mean", "setting": "[1]; 500 mg/day group", "result": 5.40}, {"measurement": "CVLT I & II List A Long Delay V1, Mean", "setting": "[2]; 250 mg/day group", "result": 10.26}, {"measurement": "CVLT I & II List A Short Delay V1, Mean", "setting": "[2]; 250 mg/day group", "result": 10.56}, {"measurement": "CVLT I & II List A Trial 1 V1, Mean", "setting": "[2]; 250 mg/day group", "result": 6.11}, {"measurement": "CVLT I & II List A Trial 5 V1, Mean", "setting": "[2]; 250 mg/day group", "result": 12.33}, {"measurement": "CVLT I & II List A Trials 1-5 V1, Mean", "setting": "[2]; 250 mg/day group", "result": 50.52}, {"measurement": "CVLT I & II List B V1, Mean", "setting": "[2]; 250 mg/day group", "result": 5.78}, {"measurement": "V3-V1 CVLT I & II Difference List A Long Delay, Mean", "setting": "[2]; 250 mg/day group", "result": 0.81}, {"measurement": "V3-V1 CVLT I & II Difference List A Short Delay, Mean", "setting": "[2]; 250 mg/day group", "result": 1.04}, {"measurement": "V3-V1 CVLT I & II Difference List A Trial 1, Mean", "setting": "[2]; 250 mg/day group", "result": 1.63}, {"measurement": "V3-V1 CVLT I & II Difference List A Trial 5, Mean", "setting": "[2]; 250 mg/day group", "result": 0.52}, {"measurement": "V3-V1 CVLT I & II Difference List A Trials 1-5, Mean", "setting": "[2]; 250 mg/day group", "result": 3.11}, {"measurement": "V3-V1 CVLT I & II Difference List B Trial 1, Mean", "setting": "[2]; 250 mg/day group", "result": 0.48}, {"measurement": "CVLT I & II List A Long Delay V3, Mean", "setting": "[2]; 250 mg/day group", "result": 11.07}, {"measurement": "CVLT I & II List A Short Delay V3, Mean", "setting": "[2]; 250 mg/day group", "result": 11.59}, {"measurement": "CVLT I & II List A Trial 1 V3, Mean", "setting": "[2]; 250 mg/day group", "result": 7.74}, {"measurement": "CVLT I & II List A Trial 5 V3, Mean", "setting": "[2]; 250 mg/day group", "result": 12.85}, {"measurement": "CVLT I & II List A Trials 1-5 V3, Mean", "setting": "[2]; 250 mg/day group", "result": 53.63}, {"measurement": "CVLT I & II List B V3, Mean", "setting": "[2]; 250 mg/day group", "result": 6.26}, {"measurement": "CVLT I & II List A Long Delay V1, Mean", "setting": "[2]; 500 mg/day group", "result": 9.79}, {"measurement": "CVLT I & II List A Short Delay V1, Mean", "setting": "[2]; 500 mg/day group", "result": 10.25}, {"measurement": "CVLT I & II List A Trial 1 V1, Mean", "setting": "[2]; 500 mg/day group", "result": 6.58}, {"measurement": "CVLT I & II List A Trial 5 V1, Mean", "setting": "[2]; 500 mg/day group", "result": 11.83}, {"measurement": "CVLT I & II List A Trials 1-5 V1, Mean", "setting": "[2]; 500 mg/day group", "result": 49.04}, {"measurement": "CVLT I & II List B V1, Mean", "setting": "[2]; 500 mg/day group", "result": 6.67}, {"measurement": "V3-V1 CVLT I & II Difference List A Long Delay, Mean", "setting": "[2]; 500 mg/day group", "result": 1.13}, {"measurement": "V3-V1 CVLT I & II Difference List A Short Delay, Mean", "setting": "[2]; 500 mg/day group", "result": 0.96}, {"measurement": "V3-V1 CVLT I & II Difference List A Trial 1, Mean", "setting": "[2]; 500 mg/day group", "result": 1.00}, {"measurement": "V3-V1 CVLT I & II Difference List A Trial 5, Mean", "setting": "[2]; 500 mg/day group", "result": 0.88}, {"measurement": "V3-V1 CVLT I & II Difference List A Trials 1-5, Mean", "setting": "[2]; 500 mg/day group", "result": 3.75}, {"measurement": "V3-V1 CVLT I & II Difference List B Trial 1, Mean", "setting": "[2]; 500 mg/day group", "result": -0.33}, {"measurement": "CVLT I & II List A Long Delay V3, Mean", "setting": "[2]; 500 mg/day group", "result": 10.92}, {"measurement": "CVLT I & II List A Short Delay V3, Mean", "setting": "[2]; 500 mg/day group", "result": 11.21}, {"measurement": "CVLT I & II List A Trial 1 V3, Mean", "setting": "[2]; 500 mg/day group", "result": 7.58}, {"measurement": "CVLT I & II List A Trial 5 V3, Mean", "setting": "[2]; 500 mg/day group", "result": 12.71}, {"measurement": "CVLT I & II List A Trials 1-5 V3, Mean", "setting": "[2]; 500 mg/day group", "result": 52.79}, {"measurement": "CVLT I & II List B V3, Mean", "setting": "[2]; 500 mg/day group", "result": 6.33}]}
